Where two headings read alike, the source gives them in different places.
Tests used:
[1] = tested on: complement system; conditions: Br. J. Exp. Pathol. 33: 327 (1952); cited from earlier work
[2] = tested on: hereditary angioneurotic edema; conditions: literature reports; cited from earlier work
[3] = tested on: human serum; conditions: in vitro and in vivo, judged by reduction in total hemolytic complement activity; cited from earlier work
[4] = biological target: T1, activated human C1 (Homo sapiens, UniProt P09871); assay: Test Code 026 (C1 inhibitor); format: biochemical; conditions: serial twofold dilution assay; higher well number indicates higher activity
T1 sequence (P09871 16-437 limits assumed): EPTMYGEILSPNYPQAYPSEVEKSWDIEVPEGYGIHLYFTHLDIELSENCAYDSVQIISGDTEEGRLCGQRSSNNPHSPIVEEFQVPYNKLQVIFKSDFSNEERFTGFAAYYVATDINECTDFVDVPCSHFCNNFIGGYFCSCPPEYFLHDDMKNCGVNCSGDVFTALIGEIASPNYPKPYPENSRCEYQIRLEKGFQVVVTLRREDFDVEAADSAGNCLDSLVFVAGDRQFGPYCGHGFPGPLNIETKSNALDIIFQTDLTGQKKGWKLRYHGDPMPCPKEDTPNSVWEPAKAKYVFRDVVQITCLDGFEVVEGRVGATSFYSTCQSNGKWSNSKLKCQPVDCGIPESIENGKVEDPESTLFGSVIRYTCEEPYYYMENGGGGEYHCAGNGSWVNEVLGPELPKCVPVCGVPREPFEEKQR
T1 sequence (P09871 438-688 limits assumed): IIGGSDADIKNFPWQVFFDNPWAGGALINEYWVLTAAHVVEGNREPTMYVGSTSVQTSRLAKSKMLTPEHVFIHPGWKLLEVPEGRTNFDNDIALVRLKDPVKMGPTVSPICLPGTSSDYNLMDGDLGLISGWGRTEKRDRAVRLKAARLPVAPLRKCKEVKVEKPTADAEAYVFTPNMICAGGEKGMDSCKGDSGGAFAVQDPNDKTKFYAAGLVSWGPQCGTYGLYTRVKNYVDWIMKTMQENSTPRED

[5] = tested on: late components of human complement (C3-C9); assay: Test Code 035 (C3-C9 inhibitor), lysis of EAC 142; format: biochemical; conditions: serial twofold dilution assay; higher well number indicates higher activity
[6] = tested on: complement activity of sera; assay: Guinea Pig Intraperitoneal Test (GPIP); format: in vivo; conditions: Cavia porcellus, ip, 200 mg/kg i.p., capillary complement assay
Description: Percent inhibition is calculated by comparison with simultaneous controls.

## heparin
[1]
  anticomplementary effect: anticomplementary effect

## NC[C@H]1CC[C@H](C(=O)O)CC1 [tranexamic acid]
[2]
  success in the treatment of hereditary angioneurotic edema: used with success

## NCCCCCC(=O)O [epsilon-aminocaproic acid]
[2]
  success in the treatment of hereditary angioneurotic edema: used with success

## Nc1ccc2cc(S(=O)(=O)[O-])cc(O)c2c1N=Nc1ccc(NC(=O)Nc2ccc(N=Nc3c(N)ccc4cc(S(=O)(=O)[O-])cc(O)c34)c(S(=O)(=O)[O-])c2)cc1S(=O)(=O)[O-].[Na+].[Na+].[Na+].[Na+] [chlorazol fast pink, 3,3'-ureylenebis-[6-(2-amino-8-hydroxy-6-sulfo-1-naphthylazo)benzenesulfonic acid], tetrasodium salt]
[1]
  anticomplementary effect: anticomplementary effect

## pentosan-polysulfoester
[3]
  anticomplementary activity on human serum: anticomplementary activity

## O=C(CCCCC(=O)Nc1ccc(S[C@@H]2O[C@H](COS(=O)(=O)O)[C@@H](O[C@H]3O[C@H](COS(=O)(=O)O)[C@@H](OS(=O)(=O)O)[C@H](OS(=O)(=O)O)[C@H]3OS(=O)(=O)O)[C@H](OS(=O)(=O)O)[C@H]2OS(=O)(=O)O)cc1)Nc1ccc(S[C@@H]2O[C@H](COS(=O)(=O)O)[C@@H](O[C@H]3O[C@H](COS(=O)(=O)O)[C@@H](OS(=O)(=O)O)[C@H](OS(=O)(=O)O)[C@H]3OS(=O)(=O)O)[C@H](OS(=O)(=O)O)[C@H]2OS(=O)(=O)O)cc1.[Na].[Na].[Na].[Na].[Na].[Na].[Na].[Na].[Na].[Na].[Na].[Na].[Na].[Na] [tetradecasodium N,N'-bis[4-[2,3,6-tri-O-sulfo-4-O-(2,3,4,6-tetra-O-sulfo-α-D-glucopyranosyl)-β-D-glucopyranosylthio]phenyl]hexanediamide]
[4]
  in vitro Activity Cl 026 Wells: 10.5 Wells
[5]
  in vitro Activity C-Late 035 Wells: 1.0 Wells
[6]; blood 2 hours after injection, read-out: in vivo Activity Guinea Pig % Inhibition Intraperitoneal, 2 hours
  inhibition at 200 mg/kg: 90%
[6]; blood 6 hours after injection, read-out: in vivo Activity Guinea Pig % Inhibition Intraperitoneal, 6 hours
  inhibition at 200 mg/kg: 85%
[6]; blood 24 hours after injection, read-out: in vivo Activity Guinea Pig % Inhibition Intraperitoneal, 24 hours
  inhibition at 200 mg/kg: 76%
